Reference: ChEMBL document CHEMBL1144926, “Structure-activity relationships of dynorphin a analogues modified in the address sequence” (J Med Chem, 2003)
Non-standard residues stand in square brackets, D forms with d. Residues, ends and D or L forms follow the SMILES beside them. Nle = CCCC[C@H](N)C(=O)O

What was measured:
[1] = biological target: T1, Opioid receptors; mu/kappa/delta (Homo sapiens) (UniProt P41145+P41143+P35372); assay: Binding affinity towards human kappa,mu,delta receptors was calculated as the ratio; 1/34/69; type: protein assay
T1 sequence (P35372 whole entry, looked up): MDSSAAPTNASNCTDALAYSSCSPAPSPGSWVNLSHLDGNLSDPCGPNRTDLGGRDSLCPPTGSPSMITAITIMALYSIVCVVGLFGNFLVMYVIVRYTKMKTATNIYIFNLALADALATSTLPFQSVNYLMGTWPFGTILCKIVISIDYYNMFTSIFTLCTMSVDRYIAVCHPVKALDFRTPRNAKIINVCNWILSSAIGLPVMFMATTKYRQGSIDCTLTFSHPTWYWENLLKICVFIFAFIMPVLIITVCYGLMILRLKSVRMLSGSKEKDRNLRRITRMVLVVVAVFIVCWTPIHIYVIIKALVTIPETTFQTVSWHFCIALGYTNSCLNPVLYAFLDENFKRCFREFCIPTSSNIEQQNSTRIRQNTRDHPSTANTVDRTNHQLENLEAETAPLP
T1 sequence (P41143 whole entry, looked up): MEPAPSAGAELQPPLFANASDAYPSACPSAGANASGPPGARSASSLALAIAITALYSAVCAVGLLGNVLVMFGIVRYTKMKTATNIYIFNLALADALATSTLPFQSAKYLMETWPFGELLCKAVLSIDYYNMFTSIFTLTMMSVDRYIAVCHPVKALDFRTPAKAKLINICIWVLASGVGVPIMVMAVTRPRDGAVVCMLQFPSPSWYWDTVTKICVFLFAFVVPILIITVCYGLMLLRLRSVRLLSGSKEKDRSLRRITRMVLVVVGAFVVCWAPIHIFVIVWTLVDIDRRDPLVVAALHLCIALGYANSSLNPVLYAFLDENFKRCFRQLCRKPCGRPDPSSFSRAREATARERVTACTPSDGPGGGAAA
T1 sequence (P41145 whole entry, looked up): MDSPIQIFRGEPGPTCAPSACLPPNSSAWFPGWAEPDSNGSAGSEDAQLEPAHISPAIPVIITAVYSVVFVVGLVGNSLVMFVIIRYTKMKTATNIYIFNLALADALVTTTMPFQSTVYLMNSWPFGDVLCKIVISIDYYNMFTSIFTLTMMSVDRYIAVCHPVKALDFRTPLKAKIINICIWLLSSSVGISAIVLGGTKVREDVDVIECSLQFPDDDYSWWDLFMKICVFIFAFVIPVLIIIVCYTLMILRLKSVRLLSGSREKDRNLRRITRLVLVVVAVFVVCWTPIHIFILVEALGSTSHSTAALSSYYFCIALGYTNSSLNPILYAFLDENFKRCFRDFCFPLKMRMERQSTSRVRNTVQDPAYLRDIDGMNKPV

[2] = biological target: Mu-type opioid receptor (Cavia porcellus) (UniProt P97266); settings: Ileum
Chain of Mu-type opioid receptor (Cavia porcellus) (P97266 whole entry): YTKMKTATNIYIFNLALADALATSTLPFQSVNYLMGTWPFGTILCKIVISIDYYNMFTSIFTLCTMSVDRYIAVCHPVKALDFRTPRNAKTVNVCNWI

[3] = biological target: T2, Kappa-type opioid receptor (Homo sapiens, UniProt P41145); assay: biochemical; type: cell-based, CHO
T2 sequence (P41145 whole entry): as the sequence (P41145 whole entry, looked up) above

Mu-type opioid receptor = Mu-type opioid receptor (Homo sapiens, UniProt P35372); assay: biochemical; type: cell-based, CHO
Chain of Mu-type opioid receptor (P35372 whole entry): as the sequence (P35372 whole entry, looked up) above

[4] = biological target: Delta-type opioid receptor (Homo sapiens, UniProt P41143); assay: In vitro binding affinity to human Opioid receptor delta 1 on CHO cell membranes using [3H]diprenorphine displacement.
Chain of Delta-type opioid receptor (P41143 whole entry): as the sequence (P41143 whole entry, looked up) above

[5] = biological target: T1, Opioid receptors; mu/kappa/delta (Homo sapiens); assay: Binding affinity towards human kappa,mu,delta receptors was calculated as the ratio; 1/620/1300; type: protein assay
[6] = biological target: T1, Opioid receptors; mu/kappa/delta (Homo sapiens); assay: Binding affinity towards human kappa,mu,delta receptors was calculated as the ratio; 1/360/360; type: protein assay
[7] = biological target: T2, Kappa-type opioid receptor; type: functional
[8] = biological target: T2, Kappa-type opioid receptor; assay: Antagonistic activity in theOpioid receptor kappa 1 -mediated [35S]GTP-gamma-S, binding assay against 50 nM U-50,488; type: functional
[9] = biological target: T2, Kappa-type opioid receptor; assay: Antagonistic activity in the Opioid receptor kappa 1 -mediated [35S]GTP-gamma-S, binding assay against 50 nM U-50,488; type: functional
[10] = biological target: T2, Kappa-type opioid receptor; settings: 10 uM
[11] = biological target: T1, Opioid receptors; mu/kappa/delta (Homo sapiens); assay: Binding affinity towards human kappa,mu,delta receptors was calculated as the ratio; 1/3.4/2.3; type: protein assay
[12] = biological target: T1, Opioid receptors; mu/kappa/delta (Homo sapiens); assay: Binding affinity towards human kappa,mu,delta receptors was calculated as the ratio; 1/560/1200; type: protein assay

Which Ki ratio [1] does the source give for CC[C@H](C)[C@H](NC(=O)[C@H](CCCN=C(N)N)NC(=O)[C@H](CCCN=C(N)N)NC(=O)[C@H](CC(C)C)NC(=O)[C@H](Cc1ccccc1)NC(=O)CNC(=O)CNC(=O)[C@@H](N)Cc1ccc(O)cc1)C(=O)N[C@@H](CCCN=C(N)N)C(=O)N1CCC[C@@H]1C(=O)O here?
Its Ki ratio is “kappa/mu/delta”.

Oc1ccc2c3c1O[C@H]1c4[nH]c5c(c4C[C@@]4(O)[C@@H](C2)N(CC2CC2)CC[C@]314)C[C@@]1(O)[C@H]2Cc3ccc(O)c4c3[C@@]1(CCN2CC1CC1)[C@H]5O4 was tested. Which Ke [2] did it give?
The Ke was 0.572 nM.

CC[C@H](C)[C@H](NC(=O)[C@H](CCCN=C(N)N)NC(=O)[C@H](CCCN=C(N)N)NC(=O)[C@H](CC(C)C)NC(=O)[C@H](Cc1ccccc1)NC(=O)[C@@H]1CCCN1C(=O)CNC(=O)[C@@H](N)Cc1ccc(O)cc1)C(=O)N[C@@H](CCCN=C(N)N)C(=O)N1CCC[C@H]1C(N)=O was tested. Which Ki ([3]; cho) did it give?
The Ki was 10 nM.

And the Ki (Mu-type opioid receptor; cho)?
Its Ki is 6200 nM.

What about the Ki ([4]; cho) of the same molecule?
The Ki was 13500 nM.

For H-YGPFLRRI-NH2, which Ki [3] is on record?
Its Ki is 79.4 nM.

And the Ki (Mu-type opioid receptor)?
Its Ki is 16200 nM.

What about the Ki [4] of the same molecule?
The Ki was 16200 nM.

With CC(C)C[C@H](NC(=O)[C@H](Cc1ccccc1)NC(=O)[C@@H]1CCCN1C(=O)CNC(=O)[C@@H](N)Cc1ccc(O)cc1)C(=O)N[C@@H](CCCN=C(N)N)C(=O)N[C@@H](CCCN=C(N)N)C(=O)N[C@@H](CCCN=C(N)N)C(=O)N[C@@H](CCCN=C(N)N)C(=O)N1CCC[C@@H]1C(=O)N[C@@H](CCCCN)C(N)=O as the molecule, how does the Ke [2] read?
The Ke was 280 nM.

Which Ki [3] does the source give for H-YGGFLR-OH here?
The Ki was 404 nM.

And the Ki (Mu-type opioid receptor)?
Its Ki is 40.6 nM.

What about the Ki [4] of the same molecule?
The Ki was 9.1 nM.

Which Ki [3] does the source give for CC[C@H](C)[C@H](NC(=O)[C@H](CCCNC(=N)N)NC(=O)[C@H](CCCNC(=N)N)NC(=O)[C@H](CC(C)C)NC(=O)[C@H](Cc1ccccc1)NC(=O)CNC(=O)CNC(=O)[C@@H](N)Cc1ccc(O)cc1)C(=O)N[C@@H](CCCNC(=N)N)C(=O)N1CCC[C@H]1C(=O)N[C@@H](CCCCN)C(=O)N[C@@H](CC(C)C)C(=O)N[C@@H](CCCCN)C(=O)O here?
The Ki was 0.23 nM.

CC[C@H](C)[C@H](NC(=O)[C@H](CCCN=C(N)N)NC(=O)[C@H](CCCN=C(N)N)NC(=O)[C@H](CC(C)C)NC(=O)[C@H](Cc1ccccc1)NC(=O)[C@@H]1CCCN1C(=O)CNC(=O)[C@@H](N)Cc1ccc(O)cc1)C(=O)N[C@@H](CCCN=C(N)N)C(=O)N1CCC[C@@H]1C(N)=O was tested. Which Ki ratio [5] did it give?
Its Ki ratio is “kappa/mu/delta”.

How did the Ki ratio [6] turn out when CC[C@H](C)[C@H](NC(=O)[C@H](CCCN=C(N)N)NC(=O)[C@H](CCCN=C(N)N)NC(=O)[C@H](CC(C)C)NC(=O)[C@H](Cc1ccccc1)NC(=O)[C@@H]1CCCN1C(=O)CNC(=O)[C@@H](N)Cc1ccc(O)cc1)C(=O)N[C@@H](CCCN=C(N)N)C(=O)N1CCC[C@@H]1C(=O)N[C@@H](CCCCN)C(=O)O was run?
Its Ki ratio is “kappa/mu/delta”.

CC(C)C[C@H](NC(=O)[C@H](Cc1ccccc1)NC(=O)[C@@H]1CCCN1C(=O)CNC(=O)[C@@H](N)Cc1ccc(O)cc1)C(=O)N[C@@H](CCCNC(=N)N)C(=O)N[C@@H](CCCNC(=N)N)C(=O)N[C@@H](CCCNC(=N)N)C(=O)N[C@@H](CCCNC(=N)N)C(=O)N1CCC[C@H]1C(=O)N[C@@H](CCCCN)C(N)=O was tested. Which IC50 [7] did it give?
Its IC50 is 340 nM.

What about the Ki ([3]; cho) of the same molecule?
The Ki was 0.44 nM.

And the Ki (Mu-type opioid receptor; cho)?
Its Ki is 2750 nM.

And the Ki ([4]; cho)?
The Ki was 6760 nM.

Which results are given for CC[C@H](C)[C@H](NC(=O)[C@H](CCCNC(=N)N)NC(=O)[C@H](CCCNC(=N)N)NC(=O)[C@H](CC(C)C)NC(=O)[C@H](Cc1ccccc1)NC(=O)[C@@H]1CCCN1C(=O)CNC(=O)[C@@H](N)Cc1ccc(O)cc1)C(=O)N[C@@H](CCCNC(=N)N)C(=O)N[C@@H](CCCNC(=N)N)C(=O)N[C@@H](CCCCN)C(N)=O?
IC50 [7]: 410 nM; Ki ([3]; cho): 1.2 nM; Ki (Mu-type opioid receptor; cho): 1660 nM; Ki ([4]; cho): 3230 nM

With CC[C@H](C)[C@H](NC(=O)[C@H](CCCNC(=N)N)NC(=O)[C@H](CCCNC(=N)N)NC(=O)[C@H](CC(C)C)NC(=O)[C@H](Cc1ccccc1)NC(=O)CNC(=O)CNC(=O)[C@@H](N)Cc1ccc(O)cc1)C(=O)N[C@@H](CCCNC(=N)N)C(=O)N1CCC[C@H]1C(=O)O as the molecule, how does the Ki [3] read?
The Ki was 0.35 nM.

And the Ki (Mu-type opioid receptor)?
The Ki was 11.9 nM.

And the Ki [4]?
Its Ki is 24 nM.

Which results are given for CC[C@H](C)[C@H](NC(=O)[C@H](CCCNC(=N)N)NC(=O)[C@H](CCCNC(=N)N)NC(=O)[C@H](CC(C)C)NC(=O)[C@H](Cc1ccccc1)NC(=O)[C@@H]1CCCN1C(=O)CNC(=O)[C@@H](N)Cc1ccc(O)cc1)C(=O)N[C@@H](CCCNC(=N)N)C(=O)N1CCC[C@H]1C(=O)N[C@@H](CCCCN)C(N)=O?
IC50 [8]: 440 nM; Ki [3]: 2.4 nM; Ki (Mu-type opioid receptor): 5250 nM

Which Ki [3] does the source give for H-YGPFLR-NH2 [listing 1 of 2 here] here?
Its Ki is 5600 nM.

What about the Ki (Mu-type opioid receptor) of the same molecule?
The Ki was 19500 nM.

And the Ki [4]?
The Ki was 12600 nM.

What does the source list for H-YGGFLRRIR-OH?
Ki [3]: 2.5 nM; Ki (Mu-type opioid receptor): 23.8 nM; Ki [4]: 9.8 nM

What does the source list for CCCC[C@H](NC(=O)[C@H](CC(C)C)NC(=O)[C@H](Cc1ccccc1)NC(=O)[C@@H]1CCCN1C(=O)CNC(=O)[C@@H](N)Cc1ccc(O)cc1)C(=O)N[C@@H](CCCN=C(N)N)C(N)=O (H-YGPFL[Nle]R-NH2)?
Ki [3]: > 100000 nM; Ki (Mu-type opioid receptor): > 100000 nM; Ki [4]: 14100 nM

Which IC50 [7] does the source give for CC[C@H](C)[C@H](NC(=O)[C@H](CCCNC(=N)N)NC(=O)[C@H](CCCNC(=N)N)NC(=O)[C@H](CC(C)C)NC(=O)[C@H](Cc1ccccc1)NC(=O)[C@@H]1CCCN1C(=O)CNC(=O)[C@@H](N)Cc1ccc(O)cc1)C(=O)N[C@@H](CCCNC(=N)N)C(=O)N[C@@H](CCCNC(=N)N)C(N)=O here?
Its IC50 is 1260 nM.

And the Ki ([3]; cho)?
The Ki was 3.39 nM.

What about the Ki (Mu-type opioid receptor; cho) of the same molecule?
Its Ki is 2340 nM.

And the Ki ([4]; cho)?
Its Ki is 6030 nM.

CC(C)C[C@H](NC(=O)[C@H](Cc1ccccc1)NC(=O)[C@@H]1CCCN1C(=O)CNC(=O)[C@@H](N)Cc1ccc(O)cc1)C(=O)N[C@@H](CCCN=C(N)N)C(=O)N[C@@H](CCCN=C(N)N)C(=O)N[C@@H](CCCN=C(N)N)C(N)=O was tested. Which IC50 [9] did it give?
The IC50 was 4000 nM.

What about the Ki [3] of the same molecule?
Its Ki is 6.61 nM.

What about the Ki (Mu-type opioid receptor) of the same molecule?
Its Ki is 3100 nM.

What about the Ki [4] of the same molecule?
The Ki was > 100000 nM.

CC[C@H](C)[C@H](NC(=O)[C@H](CCCN=C(N)N)NC(=O)[C@H](CCCN=C(N)N)NC(=O)[C@H](CC(C)C)NC(=O)[C@H](Cc1ccccc1)NC(=O)CNC(=O)CNC(=O)[C@@H](N)Cc1ccc(O)cc1)C(=O)O was tested. Which Ki (Mu-type opioid receptor) did it give?
The Ki was 35.4 nM.

With CC(C)C[C@H](NC(=O)[C@H](Cc1ccccc1)NC(=O)CNC(=O)CNC(=O)[C@@H](N)Cc1ccc(O)cc1)C(=O)N[C@@H](CCCNC(=N)N)C(=O)N[C@@H](CCCNC(=N)N)C(=O)O as the molecule, how does the Ki (Mu-type opioid receptor) read?
The Ki was 38 nM.

And the Ki [4]?
The Ki was 9.7 nM.

Which results are given for H-YGPFLRR-NH2?
Ki [3]: 60.3 nM; Ki (Mu-type opioid receptor): 12600 nM; Ki [4]: 15100 nM

How did the Ki [3] turn out when CC[C@H](C)[C@H](NC(=O)[C@H](CCCN=C(N)N)NC(=O)[C@H](CCCN=C(N)N)NC(=O)[C@H](CC(C)C)NC(=O)[C@H](Cc1ccccc1)NC(=O)CNC(=O)CNC(=O)[C@@H](N)Cc1ccc(O)cc1)C(=O)N[C@@H](CCCN=C(N)N)C(=O)N1CCC[C@H]1C(=O)N[C@@H](CCCCN)C(N)=O was run?
Its Ki is 0.059 nM.

What about the Max stimulation [10] of the same molecule?
Its Max stimulation is 73%.

How did the Ki ratio [11] turn out when H-YGPFLR-NH2 [listing 2 of 2 here] was run?
Its Ki ratio is “kappa/delta/mu”.

How did the Ki [3] turn out when H-YGPFL-NH2 was run?
The Ki was > 10000 nM.

And the Ki (Mu-type opioid receptor)?
Its Ki is 15500 nM.

What about the Ki [4] of the same molecule?
The Ki was 18600 nM.

For H-YGPFLRRIR-NH2, which Ki [3] is on record?
The Ki was 10.7 nM.

What about the Ki (Mu-type opioid receptor) of the same molecule?
Its Ki is 6030 nM.

And the Ki [4]?
Its Ki is 13200 nM.

And the Ki ratio [12]?
The Ki ratio was “kappa/delta/mu”.

Which results are given for CC[C@H](C)[C@H](NC(=O)[C@H](CCCNC(=N)N)NC(=O)[C@H](CCCNC(=N)N)NC(=O)[C@H](CC(C)C)NC(=O)[C@H](Cc1ccccc1)NC(=O)[C@@H]1CCCN1C(=O)CNC(=O)[C@@H](N)Cc1ccc(O)cc1)C(=O)N[C@@H](CCCNC(=N)N)C(=O)N1CCC[C@H]1C(=O)N[C@@H](CCCCN)C(=O)O?
Ki ([3]; cho): 41.7 nM; Ki (Mu-type opioid receptor; cho): 15100 nM; Ki ([4]; cho): 15000 nM

With CC[C@H](C)[C@H](NC(=O)[C@H](CCCN=C(N)N)NC(=O)[C@H](CCCN=C(N)N)NC(=O)[C@H](CC(C)C)NC(=O)[C@H](Cc1ccccc1)NC(=O)[C@@H]1CCCN1C(=O)CNC(=O)[C@@H](N)Cc1ccc(O)cc1)C(=O)N[C@@H](CCCN=C(N)N)C(=O)N1CCC[C@@H]1C(=O)N[C@@H](CCCCN)C(N)=O as the molecule, how does the Ke [2] read?
Its Ke is 494 nM.
